Source: patent US20230183216A1, “PYRIDIZIN-3(2H)-ONE DERIVATIVES” (Gilead Sciences, Inc., priority 2021, published 2023)
pEC50, pIC50: −log10 of the molar value.

How the values were obtained:
PARP7 = target: T1, PARP7 (Homo sapiens, UniProt Q7Z3E1); assay: biochemical;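 further: MSD light signal quantifying PARP7 captured by a plate-immobilized probe, read after 1.5 h equilibration plus 1.5 h with SULFO-TAG anti-GST antibody at room temperature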
T1 sequence (Q7Z3E1 1-657): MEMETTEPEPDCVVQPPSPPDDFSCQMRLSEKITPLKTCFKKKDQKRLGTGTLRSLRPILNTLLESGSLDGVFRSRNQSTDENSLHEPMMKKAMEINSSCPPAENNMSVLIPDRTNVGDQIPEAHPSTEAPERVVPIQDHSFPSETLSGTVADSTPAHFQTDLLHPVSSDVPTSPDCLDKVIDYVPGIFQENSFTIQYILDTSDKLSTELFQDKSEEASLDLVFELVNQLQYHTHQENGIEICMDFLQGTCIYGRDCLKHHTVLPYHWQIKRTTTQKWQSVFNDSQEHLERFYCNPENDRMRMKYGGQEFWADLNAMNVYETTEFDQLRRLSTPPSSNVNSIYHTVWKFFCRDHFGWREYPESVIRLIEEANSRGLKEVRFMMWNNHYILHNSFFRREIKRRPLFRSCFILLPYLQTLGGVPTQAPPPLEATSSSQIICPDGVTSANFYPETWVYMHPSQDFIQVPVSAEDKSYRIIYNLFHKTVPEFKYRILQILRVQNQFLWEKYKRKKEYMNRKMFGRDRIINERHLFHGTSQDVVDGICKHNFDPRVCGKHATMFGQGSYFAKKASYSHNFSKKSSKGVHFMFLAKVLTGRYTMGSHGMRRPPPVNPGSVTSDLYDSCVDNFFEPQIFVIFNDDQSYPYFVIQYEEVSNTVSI

[1] = system: STAT1 (phosphorylated at Tyr701) in NCI-H1373 cells; assay: Phospho-STAT1 (Tyr701) LANCE Ultra TR-FRET Detection Assay; type: cell-based; conditions: Homo sapiens, 48 hours, induction of pSTAT1, normalized to 10 uM positive control and DMSO, 4-parameter fit, read-out: NH1373 pSTAT1 EC50
Procedure: Phospho-STAT1 (Tyr701 LANCE Ultra TR-FRET Detection Assay
LANCE Ultra phospho-STAT1 (Tyr701) kits available from Perkin Elmer are designed for the detection of phosphorylated STAT1 in cell lysates using a simple, homogeneous LANCE Ultra sandwich assay (Cat. #TRF4028M). This assay is intended for assessing compound induction of endogenous levels of cellular STAT1 (phosphorylated at Tyr701) in NCI-H1373 cells. The NCI-H1373 cells are cultured in RPMI 1640 media containing 10% heat inactivated FBS, GlutaMAX, 1% Penicillin-Streptomycin. An Echo acoustic liquid handler is used to transfer 60 nanoliters of compound dilutions using the Echo Qualified, 384-well polypropylene microplate clear flat bottom source plates into a Greiner (#781080) cell culture microplate. NCI-H1373 cells are seeded into these compound-spotted culture plates at 30,000 cells/well in a 60 uL volume in growth media. The plates are incubated in a 5% CO2 humidified incubator at 37° C. for 48 hours. […] Briefly, 20 μL of supplemented lysis buffer is added to each well and allowed to shake for 1 hour at 400 rpm. Next, 5 ul of remixed antibody solutions (vol/vol) prepared in detection buffer are added to each well and allowed to incubate at room temperature overnight. After spinning the plate down at 300 rpm for […], the plate is read on an EnVision plate reader set up for Eu3+ Cryptate and fluorescence emission is measured at two different wavelengths (665 nm and 620 nm).

pIC50 (PARP7)	SMILES	pEC50 [1]
8.99	O=C([C@@H]1C[C@@H]1CNc1cc(C(F)(F)F)c(=O)[nH]n1)N1CCN(c2ncc(C(F)(F)F)cn2)CC1 (racemic) [Example 24, Cis-(+)-4-(trifluoromethyl)-6-(((2-(4-(5-(trifluoromethyl)pyrimidin-2-yl)piperazine-1-carbonyl)cyclopropyl)methyl)amino)pyridazin-3(2H)-one]	5.53
9.65	O=C(CCC[C@@H]1CCCc2c1n[nH]c(=O)c2C(F)(F)F)N1CCN(c2ncc(C(F)(F)F)cn2)CC1 (single isomer, unassigned) [Example 76]	7.42
8.85	O=C(CCC[C@H]1CCCc2c1n[nH]c(=O)c2C(F)(F)F)N1CCN(c2ncc(C(F)(F)F)cn2)CC1 (single isomer, unassigned) [Example 77]	6.28
9.54	O=C(CCCCc1cc(C(F)(F)F)c(=O)[nH]n1)N1CCN(c2ncc(C(F)(F)F)cn2)CC1 [Example 1, 6-(5-oxo-5-(4-(5-(trifluoromethyl)pyrimidin-2-yl)piperazin-1-yl)pentyl)-4-(trifluoromethyl)pyridazin-3(2H)-one]	7.22
	O=C(CCCCCc1cc(C(F)(F)F)c(=O)[nH]n1)N1CCN(c2ncc(C(F)(F)F)cn2)CC1 [Example 2, 6-(6-oxo-6-(4-(5-(trifluoromethyl)pyrimidin-2-yl)piperazin-1-yl)hexyl)-4-(trifluoromethyl)pyridazin-3(2H)-one]	≤ 5.00
	O=C(CCc1ccccc1-c1cc(C(F)(F)F)c(=O)[nH]n1)N1CCN(c2ncc(C(F)(F)F)cn2)CC1 [Example 3, 6-(2-(3-oxo-3-(4-(5-(trifluoromethyl)pyrimidin-2-yl)piperazin-1-yl)propyl)phenyl)-4-(trifluoromethyl)pyridazin-3(2H)-one]	≤ 5.00
7.44	O=C(Cc1ccccc1-c1cc(C(F)(F)F)c(=O)[nH]n1)N1CCN(c2ncc(C(F)(F)F)cn2)CC1 [Example 4, 6-(2-(2-oxo-2-(4-(5-(trifluoromethyl)pyrimidin-2-yl)piperazin-1-yl)ethyl)phenyl)-4-(trifluoromethyl)pyridazin-3(2H)-one]	≤ 5.00
	O=C(CCCc1ccccc1-c1cc(C(F)(F)F)c(=O)[nH]n1)N1CCN(c2ncc(C(F)(F)F)cn2)CC1 [Example 5, 6-(2-(4-oxo-4-(4-(5-(trifluoromethyl)pyrimidin-2-yl)piperazin-1-yl)butyl)phenyl)-4-(trifluoromethyl)pyridazin-3(2H)-one]	≤ 5.00
9.02	O=C(CCc1cc(C(F)(F)F)c(=O)[nH]n1)N1CCN(c2ncc(C(F)(F)F)cn2)CC1 [Example 7, 6-(3-oxo-3-(4-(5-(trifluoromethyl)pyrimidin-2-yl)piperazin-1-yl)propyl)-4-(trifluoromethyl)pyridazin-3(2H)-one]	6.46
8.86	CC(CCCC(=O)N1CCN(c2ncc(C(F)(F)F)cn2)CC1)c1cc(C(F)(F)F)c(=O)[nH]n1 (centres unmarked) [Example 8, 6-(6-oxo-6-(4-(5-(trifluoromethyl)pyrimidin-2-yl)piperazin-1-yl)hexan-2-yl)-4-(trifluoromethyl)pyridazin-3(2H)-one]	6.15
8.84	O=C(N1CCN(c2ncc(C(F)(F)F)cn2)CC1)C1(CCCc2cc(C(F)(F)F)c(=O)[nH]n2)CC1 [Example 9, 4-(trifluoromethyl)-6-(3-(1-(4-(5-(trifluoromethyl)pyrimidin-2-yl)piperazine-1-carbonyl)cyclopropyl)propyl)pyridazin-3(2H)-one]	5.75
	CC(C)(CCCc1cc(C(F)(F)F)c(=O)[nH]n1)C(=O)N1CCN(c2ncc(C(F)(F)F)cn2)CC1 [Example 10, 6-(4,4-dimethyl-5-oxo-5-(4-(5-(trifluoromethyl)pyrimidin-2-yl)piperazin-1-yl)pentyl)-4-(trifluoromethyl)pyridazin-3(2H)-one]	≤ 5.00
	O=C(c1cccc(Oc2cc(C(F)(F)F)c(=O)[nH]n2)c1)N1CCN(c2ncc(C(F)(F)F)cn2)CC1 [Example 35, 4-(trifluoromethyl)-6-(3-(4-(5-(trifluoromethyl)pyrimidin-2-yl)piperazine-1-carbonyl)phenoxy)pyridazin-3(2H)-one]	≤ 5.00
	O=C(CCCNc1c[nH]c(=O)c(C(F)(F)F)c1)N1CCN(c2ncc(C(F)(F)F)cn2)CC1 [Example 41, 5-((4-oxo-4-(4-(5-(trifluoromethyl)pyrimidin-2-yl)piperazin-1-yl)butyl)amino)-3-(trifluoromethyl)pyridin-2(1H)-one]	≤ 5.00
	O=C([C@H]1CN(c2cc(C(F)(F)F)c(=O)[nH]n2)CCO1)N1CCN(c2ncc(C(F)(F)F)cn2)CC1 [Example 45, (R)-4-(trifluoromethyl)-6-(2-(4-(5-(trifluoromethyl)pyrimidin-2-yl)piperazine-1-carbonyl)morpholino)pyridazin-3(2H)-one]	≤ 5.00
	O=c1[nH]nc(N[C@]23CO[C@](C(=O)N4CCN(c5ncc(C(F)(F)F)cn5)CC4)(C2)C3)cc1C(F)(F)F [Example 46, 5-(trifluoromethyl)-3-[[1-[4-[5-(trifluoromethyl)pyrimidin-2-yl]piperazine-1-carbonyl]-2-oxabicyclo[2.1.1]hexan-4-yl]amino]-1H-pyridazin-6-one]	≤ 5.00
	O=c1[nH]nc(N[C@]23CC[C@](C(=O)N4CCN(c5ncc(C(F)(F)F)cn5)CC4)(C2)C3)cc1C(F)(F)F [Example 48, 5-(trifluoromethyl)-3-[[4-[4-[5-(trifluoromethyl)pyrimidin-2-yl]piperazine-1-carbonyl]-1-bicyclo[2.1.1]hexanyl]amino]-1H-pyridazin-6-one]	≤ 5.00
	O=c1[nH]nc(NCC2(N3CCN(c4ncc(C(F)(F)F)cn4)CC3)COC2)cc1C(F)(F)F [Example 59, 5-(trifluoromethyl)-3-[[3-[4-[5-(trifluoromethyl)pyrimidin-2-yl]piperazin-1-yl]oxetan-3-yl]methylamino]-1H-pyridazin-6-one]	≤ 5.00
	O=C([C@H]1CC[C@@H](Nc2cc(C(F)(F)F)c(=O)[nH]n2)C1)N1CCN(c2ncc(C(F)(F)F)cn2)CC1 [Example 63, 5-(trifluoromethyl)-3-[[(1R,3S)-3-[4-[5-(trifluoromethyl)pyrimidin-2-yl]piperazine-1-carbonyl]cyclopentyl]amino]-1H-pyridazin-6-one]	≤ 5.00
	C[C@H](Nc1cc(C(F)(F)F)c(=O)[nH]n1)C(=O)N1CCN(c2ncc(C(F)(F)F)cn2)CC1 [Example 64, 3-[[(1S)-1-methyl-2-oxo-2-[4-[5-(trifluoromethyl)pyrimidin-2-yl]piperazin-1-yl]ethyl]amino]-5-(trifluoromethyl)-1H-pyridazin-6-one]	6.47
	O=C([C@H]1CC[C@H](Nc2cc(C(F)(F)F)c(=O)[nH]n2)C1)N1CCN(c2ncc(C(F)(F)F)cn2)CC1 [Example 65, 5-(trifluoromethyl)-3-[[(1S,3S)-3-[4-[5-(trifluoromethyl)pyrimidin-2-yl]piperazine-1-carbonyl]cyclopentyl]amino]-1H-pyridazin-6-one]	≤ 5.00
	C[C@@H](Nc1cc(C(F)(F)F)c(=O)[nH]n1)C(=O)N1CCN(c2ncc(C(F)(F)F)cn2)CC1 [Example 66, 3-[[(1R)-1-methyl-2-oxo-2-[4-[5-(trifluoromethyl)pyrimidin-2-yl]piperazin-1-yl]ethyl]amino]-5-(trifluoromethyl)-1H-pyridazin-6-one]	≤ 5.00
	O=C(C[C@@H]1CCc2c1n[nH]c(=O)c2C(F)(F)F)N1CCN(c2ncc(C(F)(F)F)cn2)CC1 [Example 80, (S)-7-(2-oxo-2-(4-(5-(trifluoromethyl)pyrimidin-2-yl)piperazin-1-yl)ethyl)-4-(trifluoromethyl)-2,5,6,7-tetrahydro-3H-cyclopenta[c]pyridazin-3-one]	6.37
	O=C(C[C@H]1CCc2c1n[nH]c(=O)c2C(F)(F)F)N1CCN(c2ncc(C(F)(F)F)cn2)CC1 [Example 81, (R)-7-(2-oxo-2-(4-(5-(trifluoromethyl)pyrimidin-2-yl)piperazin-1-yl)ethyl)-4-(trifluoromethyl)-2,5,6,7-tetrahydro-3H-cyclopenta[c]pyridazin-3-one]	≤ 5.00
